In paper PMC6910994, “Elucidating molecular interactions of L-nucleotides with HIV-1 reverse transcriptase and mechanism of M184V-caused drug resistance” (Communications Biology, 2019):

What was measured:
HIV-1 M184V = conditions: cited from earlier work; for Resistance conferred by M184V as compared to WT: single amino acid residue mutation M184V
WT HIV-1 RT = biological target: T1, WT HIV-1 RT (Human immunodeficiency virus type 1 group M subtype B, UniProt P03366, Q857C); assay: Pre-steady-state single-turnover kinetics of nucleotide incorporation by WT HIV-1 RT; type: biochemical; conditions: for Kd: 18/26-mer dsDNA, 37 °C, read-out: Kd (apparent equilibrium dissociation constant); for Tighter binding (Kd) compared to natural dCTP: Kd dCTP / Kd analog
T1 construct: HIV-1 RT p66 and p51 subunits were expressed and purified as described previously; made in house
Protocol: (§1) Previous kinetic studies[16],[18],[20],[22]–[26] have aimed at understanding the efficiency of incorporation for (−)-FTC-TP or (−)-3TC-TP, how they compete against dCTP, and the effect of resistance mutations, such as M184V. As in our previous work[20],[25],[26], single-turnover kinetic assays were performed by rapidly mixing a pre-incubating solution of 120 nM HIV-1 RT (WT or M184V) and 30 nM 5ʹ-[^32P]-labeled 18/26-mer dsDNA substrate (Methods) with varying concentrations of dCTP, or an active metabolite of NRTIs for different times, before being quenched by 0.37 M EDTA. Representative kinetic plots displaying M184V-catalyzed incorporation of (−)-FTC-TP onto 18/26-mer dsDNA substrate are shown in Fig. 2. […] We determined the pre-steady-state kinetic parameters of maximal nucleotide incorporation rate constants (kp) and apparent equilibrium dissociation constants (Kd) for dCTP, (+)-FTC-TP, (−)-FTC-TP, (+)-3TC-TP and (−)-3TC-TP with WT or M184V HIV-1 RT (Table 1). […] The resulting selectivity factors ((kp/Kd)dCTP/(kp/Kd)NRTI) were determined to be only 1.9 and 7.0-fold higher for dCTP over (−)-FTC-TP and (−)-3TC-TP, respectively.
(§2) HIV-1 RT (120 nM) and 5ʹ-[^32P]-labeled 18/26-mer DNA (30 nM; DNA sequence shown above the 18mer primer without chemical modification) were pre-incubated at 37 °C for 5 min in reaction buffer containing 50 mM Tris-HCl (pH, 7.9), 10 mM MgCl2, 50 mM NaCl, 0.1 mM EDTA, 10% glycerol, 5 mM DTT, and 0.1 µg/mL BSA (all concentrations are final upon mixing). The reactions were initiated by rapidly mixing with varying concentrations of dCTP, FTC-TP, or 3TC-TP on a rapid chemical-quench flow apparatus (KinTek) and quenched with 0.37 M EDTA at various times. The DNA products were analyzed by sequencing gel electrophoresis (17% polyacrylamide, 8 M Urea), and quantitated using a Typhoon Trio (GE Healthcare) and ImageQuant software (Molecular Dynamics). The kinetic data were fit using non-linear regression software KaleidaGraph (Synergy) to a single-exponential equation Product=A1−exp−kobst, where A and kobs represent the reaction amplitude and observed nucleotide incorporation rate constant, respectively. Values for kobs were then plotted against the respective dNTP (or an NRTI triphosphate) concentration and each plot was fit to a hyperbolic equation kobs=kpdNTP∕Kd+dNTP, where kp is the maximal nucleotide incorporation rate constant and Kd is the apparent equilibrium dissociation constant for the binding of dNTP (or an NRTI triphosphate) to the RT and DNA complex. Each set of kinetic parameters (kp, Kd, kp/Kd) are derived from 8 individual experiments where the concentration of nucleotide is variable (i.e. 8 distinct concentrations of dCTP or NRTI). All reported error values are derived from data fitting using non-linear regression software KaleidaGraph (Synergy).

M184V HIV-1 RT [1] = biological target: T2, M184V HIV-1 RT (Human immunodeficiency virus type 1 group M subtype B, UniProt P03366, M783V/Q857C); assay: Pre-steady-state single-turnover kinetics of nucleotide incorporation by M184V HIV-1 RT; type: biochemical
T2 construct: HIV-1 RT p66 and p51 subunits were expressed and purified as described previously; made in house
Protocol: as §1
(§3) Fig. 2 Determination of kinetic parameters for (−)-FTC-TP incorporation onto 18/26-mer dsDNA catalyzed by the M184V mutant of HIV-1 RT. a A pre-incubated solution of 120 nM M184V and 30 nM 5′-[^32P]-labeled 18/26-mer was mixed with increasing concentrations of (−)-FTC-TP (3.75 µM, ●; 7.5 µM, [drawing 1]; 15 µM, [drawing 2]; 30 µM, x; 60 µM, [drawing 3]; 120 µM, [drawing 4]; 240 µM, [drawing 5]; 480 µM, [drawing 6] ) for various times at 37 °C before being quenched with 0.37 M EDTA.
as §2

M184V HIV-1 RT [2] = assay: as above; type: biochemical; conditions: M184V vs WT RT
Protocol: as §1, §3, §2

M184V mutant RT = conditions: up; cited from earlier work
HIV [3] = conditions: clinical trials, monotherapy; cited from earlier work
HIV virus = conditions: initial cell-based screening; cited from earlier work
HIV [4] = system: HIV; parameters: method as in PMID 19225726; conditions: reportedly; cited from earlier work

## Nc1ccn([C@H]2CS[C@@H](CO)O2)c(=O)n1 [3TC, 2ʹ,3ʹ-dideoxy-3ʹ-thiacytidine]
HIV-1 M184V
  Reduction in potency by M184V in cell-based assays: > 500 fold
  Resistance conferred by M184V as compared to WT: > 500 fold

## Nc1ccn([C@H]2CS[C@@H](COP(=O)(O)OP(=O)(O)OP(=O)(O)O)O2)c(=O)n1 [(+)-3TC-TP]
WT HIV-1 RT; WT HIV-1 RT
  Kd: 0.202 ± 0.004 µM
M184V HIV-1 RT [1]
  Kd: 5.4 ± 1.2 µM

## Nc1nc(=O)n([C@H]2CS[C@@H](COP(=O)(O)OP(=O)(O)OP(=O)(O)O)O2)cc1F [(+)-FTC-TP]
WT HIV-1 RT; WT HIV-1 RT
  Kd: 0.19 ± 0.02 µM
M184V HIV-1 RT [1]
  Kd: 1.8 ± 0.3 µM

## Nc1ccn([C@@H]2CS[C@H](COP(=O)(O)OP(=O)(O)OP(=O)(O)O)O2)c(=O)n1 [(−)-3TC-TP]
WT HIV-1 RT; WT HIV-1 RT
  Kd: 0.25 ± 0.01 µM
WT HIV-1 RT; WT RT
  Higher Kd value (lower binding affinity) over (−)-FTC-TP: 2.5 fold
  Tighter binding (Kd) compared to natural dCTP: 25 fold
M184V HIV-1 RT [1]
  Kd: 53 ± 4 µM
M184V HIV-1 RT [2]
  Reduction of binding affinity (higher Kd) of M184V compared to WT: 212 fold

## Nc1nc(=O)n([C@@H]2CS[C@H](COP(=O)(O)OP(=O)(O)OP(=O)(O)O)O2)cc1F [(−)-FTC-TP]
WT HIV-1 RT; WT HIV-1 RT
  Binding affinity increase (tighter binding) over (−)-3TC-TP: 2.5 fold
  Higher incorporation efficiency (kp/Kd) than (−)-3TC-TP: 3.7 fold
  Kd: 0.1 ± 0.01 µM
WT HIV-1 RT; WT RT
  Tighter binding (Kd) compared to natural dCTP: 63 fold
M184V HIV-1 RT [1]
  Kd: 28 ± 2 µM
M184V HIV-1 RT [2]
  Reduction of binding affinity (higher Kd) of M184V compared to WT: 280 fold

## Nc1nc(=O)n([C@H]2CS[C@@H](CO)O2)cc1F [FTC, 2ʹ,3ʹ-dideoxy-5-fluoro-3ʹ-thiacytidine]
HIV-1 M184V
  Reduction in potency by M184V in cell-based assays: > 500 fold
  Resistance conferred by M184V as compared to WT: > 500 fold
M184V mutant RT
  Reduction in potency by M184V in enzyme-based assays: > 300 fold
HIV [3]
  Reduction in viral HIV RNA: 1.7 log
HIV virus
  Cytotoxicity versus corresponding (+)-stereoisomer: less cytotoxic
  Potency against the HIV virus versus corresponding (+)-stereoisomer: more potent

## Cc1cn([C@@H]2C[C@@H](O)[C@H](CO)O2)c(=O)[nH]c1=O [Telbivudine]
HIV [4]
  Inhibition of HIV: does not inhibit HIV

## Nc1ccn([C@H]2C[C@H](O)[C@@H](COP(=O)(O)OP(=O)(O)OP(=O)(O)O)O2)c(=O)n1 [dCTP, deoxycytidine triphosphate]
WT HIV-1 RT; WT HIV-1 RT
  Kd: 6.3 ± 0.2 µM
M184V HIV-1 RT [1]
  Kd: 8.9 ± 1 µM
